Measurements published in ChEMBL document CHEMBL2074297, “Identification of phalloidin uptake systems of rat and human liver” (Biochim Biophys Acta, 2004).
Starred links: 1 amine or outer side, 2 acyl side, 3 side chain; linkers in the order of their positions; H or OH if unused. Positions of bridges follow the written chain, without caps; N, C: chain ends. Non-standard residues stand in square brackets, D forms with d. Residues, ends and D or L forms follow the SMILES beside them. Trp(2-yl) = O=C([C@H](Cc1c([*:3])[nH]c2ccccc12)N[*:1])[*:2]; Leu(4R-OH,5-OH) = C[C@](O)(CO)C[C@H](N)C(=O)O; cisHyp = O=C(O)[C@@H]1C[C@H](O)CN1

Tests used:
[1] = target: T1, Hepatic sodium/bile acid cotransporter (Rattus norvegicus, UniProt P26435); test: (§1) TP_TRANSPORTER: uptake in Xenopus laevis oocytes; assay type: functional, cell-based; settings: oocyte
T1 sequence (P26435 whole entry): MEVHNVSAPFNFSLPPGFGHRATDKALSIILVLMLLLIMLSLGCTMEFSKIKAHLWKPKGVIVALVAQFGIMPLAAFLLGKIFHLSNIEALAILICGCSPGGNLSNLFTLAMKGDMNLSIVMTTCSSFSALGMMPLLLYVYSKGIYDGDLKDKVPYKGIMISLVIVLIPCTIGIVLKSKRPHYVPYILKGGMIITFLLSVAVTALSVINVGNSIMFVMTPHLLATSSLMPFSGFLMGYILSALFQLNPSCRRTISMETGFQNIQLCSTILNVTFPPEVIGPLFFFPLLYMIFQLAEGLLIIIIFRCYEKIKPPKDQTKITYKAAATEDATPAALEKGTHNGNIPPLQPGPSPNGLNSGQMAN

[2] = target: T2, Solute carrier organic anion transporter family member 1A1 (Rattus norvegicus, UniProt P46720); test: as §1; assay type: functional, cell-based; settings: oocyte
T2 sequence (P46720 whole entry): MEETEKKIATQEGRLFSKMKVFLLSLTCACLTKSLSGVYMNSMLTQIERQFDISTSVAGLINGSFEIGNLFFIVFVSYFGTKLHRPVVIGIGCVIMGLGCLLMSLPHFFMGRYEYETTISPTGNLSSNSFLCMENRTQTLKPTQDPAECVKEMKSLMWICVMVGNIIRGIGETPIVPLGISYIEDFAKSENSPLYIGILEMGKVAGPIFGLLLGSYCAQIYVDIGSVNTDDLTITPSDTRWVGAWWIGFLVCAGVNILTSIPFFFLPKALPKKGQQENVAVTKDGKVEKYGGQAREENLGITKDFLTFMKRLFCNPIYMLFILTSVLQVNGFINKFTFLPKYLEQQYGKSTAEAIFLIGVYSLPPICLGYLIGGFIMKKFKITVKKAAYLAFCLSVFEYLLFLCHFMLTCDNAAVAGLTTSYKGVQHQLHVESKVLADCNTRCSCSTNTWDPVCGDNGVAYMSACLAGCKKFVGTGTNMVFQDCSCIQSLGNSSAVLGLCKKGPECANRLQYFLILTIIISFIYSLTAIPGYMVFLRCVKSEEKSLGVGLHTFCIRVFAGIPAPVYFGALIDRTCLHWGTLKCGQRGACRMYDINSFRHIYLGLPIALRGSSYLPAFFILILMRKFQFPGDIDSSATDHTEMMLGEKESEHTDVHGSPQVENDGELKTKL

[3] = target: T3, Solute carrier organic anion transporter family member 2B1 (Homo sapiens, UniProt O94956); test: as §1; assay type: functional, cell-based; settings: oocyte
T3 sequence (O94956 whole entry): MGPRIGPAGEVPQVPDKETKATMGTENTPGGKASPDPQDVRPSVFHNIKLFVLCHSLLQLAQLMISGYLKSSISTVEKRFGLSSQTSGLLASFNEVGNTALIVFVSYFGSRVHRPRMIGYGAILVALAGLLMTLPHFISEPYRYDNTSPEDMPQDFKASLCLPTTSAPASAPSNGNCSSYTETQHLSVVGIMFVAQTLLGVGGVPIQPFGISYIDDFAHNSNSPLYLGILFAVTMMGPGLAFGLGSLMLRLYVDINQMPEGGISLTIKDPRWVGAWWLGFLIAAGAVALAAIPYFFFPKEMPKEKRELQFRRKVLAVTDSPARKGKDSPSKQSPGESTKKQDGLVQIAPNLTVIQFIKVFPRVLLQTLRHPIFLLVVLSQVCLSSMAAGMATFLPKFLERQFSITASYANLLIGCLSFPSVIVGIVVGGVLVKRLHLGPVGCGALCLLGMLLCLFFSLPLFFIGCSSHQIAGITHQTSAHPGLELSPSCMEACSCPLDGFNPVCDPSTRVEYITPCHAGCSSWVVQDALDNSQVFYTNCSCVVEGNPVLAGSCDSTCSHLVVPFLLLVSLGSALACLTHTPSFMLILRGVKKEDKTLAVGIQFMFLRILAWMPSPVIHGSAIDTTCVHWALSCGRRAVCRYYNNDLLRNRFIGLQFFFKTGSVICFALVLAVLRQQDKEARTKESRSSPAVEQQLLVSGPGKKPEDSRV

[4] = target: T4, Solute carrier organic anion transporter family member 1A4 (Rattus norvegicus, UniProt O35913); test: as §1; assay type: functional, cell-based; settings: oocyte
T4 sequence (O35913 whole entry): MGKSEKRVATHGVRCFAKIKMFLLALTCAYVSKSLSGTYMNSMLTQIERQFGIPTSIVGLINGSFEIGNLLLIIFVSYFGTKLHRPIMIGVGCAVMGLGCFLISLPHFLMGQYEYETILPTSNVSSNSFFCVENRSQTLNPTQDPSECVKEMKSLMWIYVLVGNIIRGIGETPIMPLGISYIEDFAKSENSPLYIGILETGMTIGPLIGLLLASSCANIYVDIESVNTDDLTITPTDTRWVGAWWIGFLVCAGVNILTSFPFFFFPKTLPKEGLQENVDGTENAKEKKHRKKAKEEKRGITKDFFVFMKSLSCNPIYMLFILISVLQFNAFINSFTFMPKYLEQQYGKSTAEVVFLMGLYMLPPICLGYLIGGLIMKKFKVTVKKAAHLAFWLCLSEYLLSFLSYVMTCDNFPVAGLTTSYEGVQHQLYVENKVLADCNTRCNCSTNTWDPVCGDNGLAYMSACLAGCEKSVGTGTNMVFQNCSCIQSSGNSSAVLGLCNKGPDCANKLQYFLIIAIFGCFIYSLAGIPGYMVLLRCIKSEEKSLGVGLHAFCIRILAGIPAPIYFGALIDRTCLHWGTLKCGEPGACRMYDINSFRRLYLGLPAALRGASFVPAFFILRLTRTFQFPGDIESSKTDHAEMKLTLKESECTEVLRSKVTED

[5] = target: T5, Solute carrier organic anion transporter family member 1B2 (OATP1B2) (Rattus norvegicus, UniProt Q9QZX8); test: as §1; assay type: functional, cell-based, Oocyte; settings: Xenopus laevis oocytes expressing the transporter
T5 sequence (Q9QZX8 whole entry): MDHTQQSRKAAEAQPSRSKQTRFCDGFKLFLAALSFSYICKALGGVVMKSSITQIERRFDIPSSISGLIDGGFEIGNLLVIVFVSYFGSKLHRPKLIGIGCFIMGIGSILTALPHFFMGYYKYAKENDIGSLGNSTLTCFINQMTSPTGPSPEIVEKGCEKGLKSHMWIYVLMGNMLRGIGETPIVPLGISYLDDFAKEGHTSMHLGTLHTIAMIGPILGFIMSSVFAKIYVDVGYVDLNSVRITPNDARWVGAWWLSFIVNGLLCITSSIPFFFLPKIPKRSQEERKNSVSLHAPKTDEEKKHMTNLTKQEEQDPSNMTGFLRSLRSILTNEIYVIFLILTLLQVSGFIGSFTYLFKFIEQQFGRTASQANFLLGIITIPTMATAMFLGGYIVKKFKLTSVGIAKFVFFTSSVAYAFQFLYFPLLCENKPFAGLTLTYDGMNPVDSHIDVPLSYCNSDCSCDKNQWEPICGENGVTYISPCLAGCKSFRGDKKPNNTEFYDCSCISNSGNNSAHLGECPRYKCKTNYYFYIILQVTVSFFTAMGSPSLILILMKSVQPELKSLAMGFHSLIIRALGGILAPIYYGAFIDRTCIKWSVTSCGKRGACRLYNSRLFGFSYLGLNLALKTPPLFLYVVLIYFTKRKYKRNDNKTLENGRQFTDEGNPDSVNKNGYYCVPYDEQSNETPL

[6] = target: T6, Solute carrier organic anion transporter family member 1B3 (OATP1B3) (Homo sapiens, UniProt Q9NPD5); test: as §1; assay type: functional, cell-based, Oocyte; settings: Xenopus laevis oocytes expressing the transporter
T6 sequence (Q9NPD5 whole entry): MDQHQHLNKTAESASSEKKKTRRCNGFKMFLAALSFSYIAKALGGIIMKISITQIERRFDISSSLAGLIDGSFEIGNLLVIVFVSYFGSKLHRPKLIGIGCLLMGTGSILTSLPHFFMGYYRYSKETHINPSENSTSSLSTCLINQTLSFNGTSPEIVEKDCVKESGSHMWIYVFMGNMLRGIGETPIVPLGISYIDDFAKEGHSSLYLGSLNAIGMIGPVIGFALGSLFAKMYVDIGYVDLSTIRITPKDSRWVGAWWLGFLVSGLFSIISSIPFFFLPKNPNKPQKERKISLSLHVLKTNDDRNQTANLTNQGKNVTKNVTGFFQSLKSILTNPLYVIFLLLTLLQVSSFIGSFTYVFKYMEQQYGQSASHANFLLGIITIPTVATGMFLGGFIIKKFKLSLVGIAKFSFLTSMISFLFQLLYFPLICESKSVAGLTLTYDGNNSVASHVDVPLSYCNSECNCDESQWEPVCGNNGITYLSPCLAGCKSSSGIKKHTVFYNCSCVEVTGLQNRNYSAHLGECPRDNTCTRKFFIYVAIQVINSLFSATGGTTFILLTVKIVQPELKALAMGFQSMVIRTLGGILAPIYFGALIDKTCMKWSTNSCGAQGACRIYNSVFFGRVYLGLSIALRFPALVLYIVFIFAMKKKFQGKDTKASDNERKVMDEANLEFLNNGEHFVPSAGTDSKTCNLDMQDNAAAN

[7] = target: T7, Solute carrier organic anion transporter family member 1B1 (OATP1B1) (Homo sapiens, UniProt Q9Y6L6); test: as §1; assay type: functional, cell-based, Oocyte; settings: Xenopus laevis oocytes expressing the transporter
T7 sequence (Q9Y6L6 whole entry): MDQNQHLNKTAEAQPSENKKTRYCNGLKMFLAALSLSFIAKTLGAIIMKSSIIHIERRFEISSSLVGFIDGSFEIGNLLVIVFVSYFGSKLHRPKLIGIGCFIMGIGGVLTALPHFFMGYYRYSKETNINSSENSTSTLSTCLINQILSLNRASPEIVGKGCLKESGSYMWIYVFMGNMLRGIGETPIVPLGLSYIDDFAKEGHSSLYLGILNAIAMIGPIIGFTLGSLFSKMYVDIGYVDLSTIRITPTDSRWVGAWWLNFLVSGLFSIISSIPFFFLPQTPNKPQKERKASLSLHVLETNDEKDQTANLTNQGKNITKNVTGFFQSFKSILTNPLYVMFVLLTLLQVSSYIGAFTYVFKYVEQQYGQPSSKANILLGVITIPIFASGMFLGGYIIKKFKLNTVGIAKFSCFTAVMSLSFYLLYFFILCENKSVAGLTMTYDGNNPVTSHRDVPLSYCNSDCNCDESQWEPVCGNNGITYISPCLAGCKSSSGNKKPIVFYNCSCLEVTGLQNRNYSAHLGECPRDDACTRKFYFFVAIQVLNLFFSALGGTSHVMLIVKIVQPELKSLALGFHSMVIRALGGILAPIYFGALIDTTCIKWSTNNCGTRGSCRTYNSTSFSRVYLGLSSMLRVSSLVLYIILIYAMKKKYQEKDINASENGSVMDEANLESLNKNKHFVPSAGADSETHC

[8] = target: T1, Hepatic sodium/bile acid cotransporter; test: (§2) TP_TRANSPORTER: inhibition of taurocholate uptake (taurocholate: 10 uM) in Xenopus laevis oocytes; assay type: functional, cell-based; settings: oocyte
[9] = target: T2, Solute carrier organic anion transporter family member 1A1; test: as §2; assay type: functional, cell-based; settings: oocyte
[10] = target: T4, Solute carrier organic anion transporter family member 1A4; test: as §2; assay type: functional, cell-based; settings: oocyte
[11] = target: T8, Solute carrier organic anion transporter family member 1B2 (Rattus norvegicus, UniProt Q9QZX8); test: as §2; assay type: functional, cell-based; settings: oocyte
T8 sequence (Q9QZX8 whole entry): T5 sequence (Q9QZX8 whole entry)

SMILES | Activity [1] | Activity [2] | Activity [3] | Activity [4] | Km [5] [µM] | Km [6] [µM] | Km [7] [µM] | Activity [8] | Activity [9] | Activity [10] | Activity [11]
CC(O)C[C@@H]1NC(=O)[C@@H]2Cc3c([nH]c4ccccc34)SC[C@@H](NC(=O)[C@H]([C@@H](C)O)NC(=O)[C@H](C)NC1=O)C(=O)N1C[C@H](O)C[C@H]1C(=O)N[C@@H](C)C(=O)N2 (stereo partly specified) [DEMETHYLPHALLOIN] | is not a substrate [-] | is not a substrate [-] | is not a substrate [-] | is not a substrate [-] | 5.7 | 7.5 | 17 |  |  |  | 
C[C@@H]1NC(=O)[C@H](C[C@@](C)(O)CO)NC(=O)[C@@H]2Cc3c([nH]c4ccccc34)SC[C@H](NC(=O)[C@@H]([C@H](C)O)NC1=O)C(=O)N1C[C@@H](O)C[C@H]1C(=O)N[C@@H](C)C(=O)N2 [PHALLOIDIN] (cyclo(A[dT]C[cisHyp]A[Trp(2-yl)][Leu(4R-OH,5-OH)]); thioether 3-6) |  |  |  |  |  |  |  | is not an inhibitor [-] | is not an inhibitor [-] | is not an inhibitor [-] | inhibitor [+]
